The record followed here is patent US20200377496A1, “INDOLE AND BENZIMIDAZOLE DERIVATIVES AS DUAL 5-HT2A and 5-HT6 RECEPTOR ANTAGONISTS” (ADAMED PHARMA, S.A., priority 2018, published 2020).

Experiment [1] has as its system scopolamine-induced deficits in learning and memory. Description: Scopolamine-induced deficits in step-through passive avoidance test in Wistar rats. It counts as in vivo. The following applies: hydrochloride salt p.o. 180 min before training; scopolamine 0.3 mg/kg i.p.; male Wistar rats. The protocol:
Biological Example 4. Effects of Compounds 1 and 17, on Scopolamine-Induced Deficits in Learning and Memory in the Passive Avoidance Test in Wistar Rats
Drug-naive male Wistar rats (Charles River, Sulzfeld, Germany) were used. Rats were housed four per standard plastic cage and kept in a room with constant environmental conditions (22±1° C., relative humidity 60%, a 12:12 light-dark cycle with lights on at 7:00 a.m.). Animals were supplied by the breeder 2-3 weeks before the onset of behavioral procedures. During this time, the subjects were weighted and handled several times. […]
Effects of tested compounds on learning and memory function were evaluated using a step-through passive avoidance test (Ishiyama et al., 2007). […]
In the training (acquisition) session, the animals were individually placed in the lighted compartment and allowed to explore it freely for 10 s. The sliding door was then opened, and the step-through latency for animals to enter the dark compartment was measured with a 300-s cut-off time. […]
The test (expression) session was performed 24 h after the training session using the same paradigm but without any foot-shock or drug injections. Step-through latencies for animals to enter the dark compartment were measured with a 300-s cut-off time. […]
Body weights (g) and training/test latencies (s) were analyzed with the aid of a one-way analysis of variance (ANOVA). […]

Another experiment addresses 5-HT6 receptors (Homo sapiens, UniProt P50406). Description: 5-HT6 receptor binding assay ([3H]-LSD radioligand). The following applies: membranes from CHO-K1 cells with human 5-HT6 receptor, [3H]-LSD 1 nM. Here is the method: Preparation of Solutions of Test and Reference Compounds.
1 mM stock solutions of tested compounds were prepared in DMSO. Serial dilutions of compounds were prepared in 96-well microplate in assay buffers using automated pipetting system epMotion 5070 (Eppendorf). Each compound was tested in 10 concentrations from 1.0E-6 to 1.0E-11 M (final concentration).
5-HT6 Receptor Binding Assay.
Radioligand binding was performed using membranes from CHO-K1 cells stably transfected with the human 5-HT6 receptor (PerkinElmer). All assays were carried out in duplicates. 50 μl working solution of the tested compounds, 50 μl [3H]-LSD (final concentration 1 nM) and 150 μl diluted membranes (8 μg protein per well) prepared in assay buffer (50 mM Tris, pH 7.4, 10 mM MgCl2, 0.1 mM EDTA) were transferred to polypropylene 96 well microplate using 96-wells pipetting station Rainin Liquidator (MettlerToledo). Methiothepin (10 μM) was used to define nonspecific binding. Microplate was covered with a sealing tape, mixed and incubated for 60 minutes at 37° C. The reaction was terminated by rapid filtration through GF/A filter mate presoaked with 0.5% polyethyleneimine for 30 minutes. Ten rapid washes with 200 μl 50 mM Tris buffer (4° C., pH 7.4) were performed using automated harvester system Harvester-96 MACH III FM (Tomtec). The filter mates were dried at 37° C. in forced air fan incubator and then solid scintilator MeltiLex was melted on filter mates at 90° C. for 5 minutes. Radioactivity was counted in MicroBeta2 scintillation counter (PerkinElmer). Data were fitted to a one-site curve-fitting equation with Prism 6 (GraphPad Software) and Ki values were estimated from the Cheng-Prusoff equation.

Sequence of 5-HT6 receptors (P50406 whole entry): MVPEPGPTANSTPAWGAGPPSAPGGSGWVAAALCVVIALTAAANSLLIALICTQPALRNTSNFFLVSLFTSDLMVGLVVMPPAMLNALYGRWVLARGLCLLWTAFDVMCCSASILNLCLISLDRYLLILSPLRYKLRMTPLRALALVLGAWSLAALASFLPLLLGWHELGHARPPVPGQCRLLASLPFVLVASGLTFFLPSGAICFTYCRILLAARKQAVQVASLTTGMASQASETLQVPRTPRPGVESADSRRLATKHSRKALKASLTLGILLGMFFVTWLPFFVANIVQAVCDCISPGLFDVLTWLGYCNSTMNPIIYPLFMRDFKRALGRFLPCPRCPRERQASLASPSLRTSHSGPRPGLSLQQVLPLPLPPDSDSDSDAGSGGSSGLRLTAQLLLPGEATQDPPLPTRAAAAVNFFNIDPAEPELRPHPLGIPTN

Consider `FC(F)(F)c1nc2c(N3CCNCC3)cccc2n1Cc1ccccc1` [Compound 1, 1-benzyl-4-(piperazin-1-yl)-2-(trifluoromethyl)-1H-benzimidazole], for which the “minimal effective dose, elongation of step-through latencies in test session” value in experiment [1] was found to be 3.0 mg/kg. On 5-HT6 receptors, this compound showed a Ki of 1.3 nM.

For the compound `FC(F)(F)c1cc2c(N3CCNCC3)cccc2n1Cc1ccco1` [Compound 17, 1-(furan-2-ylmethyl)-4-(piperazin-1-yl)-2-(trifluoromethyl)-1H-indole], the “minimal effective dose, elongation of step-through latencies in test session” value in experiment [1] is 1.0 mg/kg. This compound showed a Ki at 5-HT6 receptors of 0.62 nM.

In general, Ki refers to a measure of affinity in units of concentration, obtained from inhibition or displacement. Read a high Ki as a looser hold on the target.
